# Data taken from patent US20250313572A1, “MACROCYCLIC MCL-1 INHIBITORS AND METHODS OF USE” (AbbVie Inc., priority 2017, published 2025).
# Where two headings read alike, the source gives them in different places.
# Legend:
# GST-MCL-1 = GST-MCL-1 (Homo sapiens, UniProt Q07820); test: TR-FRET MCL-1 binding assay (competition with probe F-Bak)
# How it was run: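 Displacement of F-Bak from GST-MCL-1 is detected by time-resolved FRET with a Tb-labelled anti-GST antibody, with excitation 340/35 nm and emission 520/525 and 495/510 nm, after 2 hours at room temperature. Compounds were titrated in 11 three-fold steps starting at 25 μM final, in buffer alone or in 10% HS.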
# [1] = test system: AMO-1 human multiple myeloma tumor cell line; test: AMO-1 cell viability assay (CellTiter-Glo, 24 hours); format: cell-based; details: Homo sapiens, AMO1, 24 h, read-out: AMO-1 Viability IC50 (μM, 10% FBS), 10% FBS, 24 hours of compound treatment
# [2] = test system: NCI-H929 human multiple myeloma tumor cell line; test: NCI-H929 cell viability assay (CellTiter-Glo, 24 hours); format: cell-based; details: Homo sapiens, NCI-H929, 24 h, read-out: H929 Viability IC50 (μM, 10% FBS), 10% FBS, 24 hours of compound treatment
# [3] = MCL-1 Binding Ki (nM, 10% HS), in the presence of 10% HS (human serum)
# [4] = without HS, read-out: MCL-1 Binding Ki
# GST-MCL-1, sequence (Q07820 whole entry): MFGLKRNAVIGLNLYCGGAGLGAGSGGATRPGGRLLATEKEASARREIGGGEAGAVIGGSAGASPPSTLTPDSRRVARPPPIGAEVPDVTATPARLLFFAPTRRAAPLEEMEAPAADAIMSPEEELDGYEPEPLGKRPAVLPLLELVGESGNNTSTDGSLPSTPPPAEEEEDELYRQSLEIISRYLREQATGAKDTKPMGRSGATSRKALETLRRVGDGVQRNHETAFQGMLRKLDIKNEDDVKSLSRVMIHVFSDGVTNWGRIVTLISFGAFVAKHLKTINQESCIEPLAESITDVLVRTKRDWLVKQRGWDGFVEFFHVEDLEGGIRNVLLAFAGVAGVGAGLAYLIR
smiles,measurement,setting,value
"COCCOCCOCCC1CCN(c2nccc(COc3ccc4cc3C[C@H](C(=O)O)Oc3ncnc5sc(-c6ccc(F)cc6)c(c35)-c3c(C)c(Cl)c(c(Cl)c3C)O[C@H](CN3CCN(C)CC3)CO4)n2)CC1 [Example 52, (7R,16R)-19,23-dichloro-1-(4-fluorophenyl)-10-{[2-(4-{2-[2-(2-methoxyethoxy)ethoxy]ethyl}piperidin-1-yl)pyrimidin-4-yl]methoxy}-20,22-dimethyl-16-[(4-methylpiperazin-1-yl)methyl]-7,8,15,6-tetrahydro-18,21-etheno-9,13-(metheno)-6,14,17-trioxa-2-thia-3,5-diazacyclononadeca[1,2,3-cd]indene-7-carboxylic Acid]",Ki,GST-MCL-1; [3],3.31 nM
same,Ki,GST-MCL-1; [4],0.348 nM
same,IC50,[1],0.000648 µM
same,IC50,[2],0.00269 µM
"COCCOCCOCCOCCOC[C@@H]1CCCC[C@H]1c1nccc(COc2ccc3cc2C[C@H](C(=O)O)Oc2ncnc4sc(-c5ccc(F)cc5)c(c24)-c2c(C)c(Cl)c(c(Cl)c2C)O[C@H](CN2CCN(C)CC2)CO3)n1 (relative stereo) [Example 120, (7R,16R)-19,23-dichloro-1-(4-fluorophenyl)-20,22-dimethyl-16-[(4-methylpiperazin-1-yl)methyl]-10-({2-[(1R*,2R*)-2-(2,5,8,11,14-pentaoxapentadecan-1-yl)cyclohexyl]pyrimidin-4-yl}methoxy)-7,8,15,16-tetrahydro-18,21-etheno-13,9-(metheno)-6,14,17-trioxa-2-thia-3,5-diazacyclononadeca[1,2,3-cd]indene-7-carboxylic Acid]",Ki,GST-MCL-1; [4],26.3 nM
same,IC50,[1],0.000231 µM
same,IC50,[2],0.000386 µM
"COCCOCCOCCO[C@H]1CC[C@H](c2nccc(COc3ccc4cc3C[C@H](C(=O)O)Oc3ncnc5sc(-c6ccc(F)cc6)c(c35)-c3c(C)c(Cl)c(c(Cl)c3C)O[C@H](CN3CCN(C)CC3)CO4)n2)CC1 [Example 57, (7R,16R)-19,23-dichloro-1-(4-fluorophenyl)-10-({2-[(1r,4r)-4-{2-[2-(2-methoxyethoxy)ethoxy]ethoxy}cyclohexyl]pyrimidin-4-yl}methoxy)-20,22-dimethyl-16-[(4-methylpiperazin-1-yl)methyl]-7,8,15,16-tetrahydro-18,21-etheno-13,9-(metheno)-6,14,17-trioxa-2-thia-3,5-diazacyclononadeca[1,2,3-cd]indene-7-carboxylic Acid]",Ki,GST-MCL-1; [3],0.072 nM
same,Ki,GST-MCL-1; [4],0.013 nM
same,IC50,[1],0.000244 µM
same,IC50,[2],0.00037 µM
"COCCOCCOCCOCC1CN(c2nccc(COc3ccc4cc3C[C@H](C(=O)O)Oc3ncnc5sc(-c6ccc(F)cc6)c(c35)-c3c(C)c(Cl)c(c(Cl)c3C)O[C@H](CN3CCN(C)CC3)CO4)n2)C1 [Example 94, (7R,16R)-19,23-dichloro-1-(4-fluorophenyl)-20,22-dimethyl-16-[(4-methylpiperazin-1-yl)methyl]-10-({2-[3-(2,5,8,11-tetraoxadodecan-1-yl)azetidin-1-yl]pyrimidin-4-yl}methoxy)-7,8,15,16-tetrahydro-18,21-etheno-9,13-(metheno)-6,14,17-trioxa-2-thia-3,5-diazacyclononadeca[1,2,3-cd]indene-7-carboxylic Acid]",Ki,GST-MCL-1; [3],1.08 nM
same,Ki,GST-MCL-1; [4],0.181 nM
same,IC50,[1],0.00203 µM
same,IC50,[2],0.00184 µM
"Cc1c(Cl)c2c(Cl)c(C)c1-c1c(-c3ccc(F)cc3)sc3ncnc(c13)O[C@@H](C(=O)O)Cc1cc(ccc1OCc1ccnc(C(CO)CO)n1)OC[C@@H](CN1CCN(C)CC1)O2 [Example 62, (7R,16R)-19,23-dichloro-10-{[2-(1,3-dihydroxypropan-2-yl)pyrimidin-4-yl]methoxy}-1-(4-fluorophenyl)-20,22-dimethyl-16-[(4-methylpiperazin-1-yl)methyl]-7,8,15,16-tetrahydro-18,21-etheno-9,13-(metheno)-6,14,17-trioxa-2-thia-3,5-diazacyclononadeca[1,2,3-cd]indene-7-carboxylic Acid]",Ki,GST-MCL-1; [3],2.26 nM
same,Ki,GST-MCL-1; [4],0.324 nM
same,IC50,[1],0.0251 µM
same,IC50,[2],0.095 µM
"Cc1c(Cl)c2c(Cl)c(C)c1-c1c(-c3ccc(F)cc3)sc3ncnc(c13)O[C@@H](C(=O)O)Cc1cc(ccc1OCc1ccnc([C@@H]3CN4CCC[C@H]4CO3)n1)OC[C@@H](CN1CCN(C)CC1)O2 [Example 150, (7R,16R)-19,23-dichloro-1-(4-fluorophenyl)-10-({2-[(3S,8aS)-hexahydro-1H-pyrrolo[2,1-c][1,4]oxazin-3-yl]pyrimidin-4-yl}methoxy)-20,22-dimethyl-16-[(4-methylpiperazin-1-yl)methyl]-7,8,15,16-tetrahydro-18,21-etheno-13,9-(metheno)-6,14,17-trioxa-2-thia-3,5-diazacyclononadeca[1,2,3-cd]indene-7-carboxylic Acid]",Ki,GST-MCL-1; [3],0.267 nM
same,Ki,GST-MCL-1; [4],0.043 nM
same,IC50,[1],0.00151 µM
same,IC50,[2],0.00253 µM
"CO[C@H]1O[C@H](COc2cccc(-c3nccc(COc4ccc5cc4C[C@@H](C(=O)O)Oc4ncnc6sc(-c7ccc(F)cc7)c(c46)-c4ccc(c(Cl)c4C)O[C@H](CN4CCN(C)CC4)CO5)n3)c2)[C@@H](OC)[C@H](OC)[C@@H]1OC [Example 8, methyl 6-O-{3-[4-({[(7S,16R,21S)-7-carboxy-19-chloro-1-(4-fluorophenyl)-20-methyl-16-[(4-methylpiperazin-1-yl)methyl]-7,8,15,16-tetrahydro-18,21-etheno-13,9-(metheno)-6,14,17-trioxa-2-thia-3,5-diazacyclononadeca[1,2,3-cd]inden-10-yl]oxy}methyl)pyrimidin-2-yl]phenyl}-2,3,4-tri-O-methyl-a-D-mannopyranoside]",Ki,GST-MCL-1; [3],111 nM
same,Ki,GST-MCL-1; [4],8.83 nM
same,IC50,[1],0.518 µM
same,IC50,[2],0.989 µM
"Cc1c(Cl)c2c(Cl)c(C)c1-c1c(-c3ccc(F)cc3)sc3ncnc(c13)O[C@@H](C(=O)O)Cc1cc(ccc1OCc1ccnc(C3(COCCOC[C@H]4COCCO4)CCC3)n1)OC[C@@H](CN1CCN(C)CC1)O2 [Example 77, (7R,16R)-19,23-dichloro-10-[(2-{1-[(2-{[(2R)-1,4-dioxan-2-yl]methoxy}ethoxy)methyl]cyclobutyl}pyrimidin-4-yl)methoxy]-1-(4-fluorophenyl)-20,22-dimethyl-16-[(4-methylpiperazin-1-yl)methyl]-7,8,15,16-tetrahydro-18,21-etheno-13,9-(metheno)-6,14,17-trioxa-2-thia-3,5-diazacyclononadeca[1,2,3-cd]indene-7-carboxylic Acid]",Ki,GST-MCL-1; [3],0.325 nM
same,Ki,GST-MCL-1; [4],0.089 nM
same,IC50,[1],0.000193 µM
same,IC50,[2],0.000405 µM
"Cc1c(Cl)c2c(Cl)c(C)c1-c1c(-c3ccc(F)cc3)sc3ncnc(c13)O[C@@H](C(=O)O)Cc1cc(ccc1OCc1ccnc(N3CC4C(C3)C4(F)F)n1)OC[C@@H](CN1CCN(C)CC1)O2 (stereo partly drawn) [Example 33, (7R,16R)-19,23-dichloro-10-{[2-(6,6-difluoro-3-azabicyclo[3.1.0]hexan-3-yl)pyrimidin-4-yl]methoxy}-1-(4-fluorophenyl)-20,22-dimethyl-16-[(4-methylpiperazin-1-yl)methyl]-7,8,15,16-tetrahydro-18,21-etheno-13,9-(metheno)-6,14,17-trioxa-2-thia-3,5-diazacyclononadeca[1,2,3-cd]indene-7-carboxylic Acid]",Ki,GST-MCL-1; [3],2.23 nM
same,Ki,GST-MCL-1; [4],0.088 nM
same,IC50,[1],0.000282 µM
same,IC50,[2],0.00123 µM
